In experiment [1] the target is T1, Maltase-glucoamylase (Homo sapiens, UniProt O43451). The experiment is described as follows: Non-competitive inhibition of alpha-glucosidase (unknown origin) using p-nitrophenyl-alpha-D glucopyranoside as substrate incubated for 30 mins by Lineweaver-Burk plot analysis.
Experiment [2] addresses T1, Maltase-glucoamylase. The experiment is described as follows: Mixed type inhibition of alpha-glucosidase (unknown origin) using p-nitrophenyl-alpha-D glucopyranoside as substrate incubated for 30 mins by Lineweaver-Burk plot analysis.

A word on the Ki: it is a dissociation constant, usually derived from enzyme kinetics or from competition with a known ligand. Read a low Ki as a stronger hold on the target.

T1 sequence (O43451 whole entry): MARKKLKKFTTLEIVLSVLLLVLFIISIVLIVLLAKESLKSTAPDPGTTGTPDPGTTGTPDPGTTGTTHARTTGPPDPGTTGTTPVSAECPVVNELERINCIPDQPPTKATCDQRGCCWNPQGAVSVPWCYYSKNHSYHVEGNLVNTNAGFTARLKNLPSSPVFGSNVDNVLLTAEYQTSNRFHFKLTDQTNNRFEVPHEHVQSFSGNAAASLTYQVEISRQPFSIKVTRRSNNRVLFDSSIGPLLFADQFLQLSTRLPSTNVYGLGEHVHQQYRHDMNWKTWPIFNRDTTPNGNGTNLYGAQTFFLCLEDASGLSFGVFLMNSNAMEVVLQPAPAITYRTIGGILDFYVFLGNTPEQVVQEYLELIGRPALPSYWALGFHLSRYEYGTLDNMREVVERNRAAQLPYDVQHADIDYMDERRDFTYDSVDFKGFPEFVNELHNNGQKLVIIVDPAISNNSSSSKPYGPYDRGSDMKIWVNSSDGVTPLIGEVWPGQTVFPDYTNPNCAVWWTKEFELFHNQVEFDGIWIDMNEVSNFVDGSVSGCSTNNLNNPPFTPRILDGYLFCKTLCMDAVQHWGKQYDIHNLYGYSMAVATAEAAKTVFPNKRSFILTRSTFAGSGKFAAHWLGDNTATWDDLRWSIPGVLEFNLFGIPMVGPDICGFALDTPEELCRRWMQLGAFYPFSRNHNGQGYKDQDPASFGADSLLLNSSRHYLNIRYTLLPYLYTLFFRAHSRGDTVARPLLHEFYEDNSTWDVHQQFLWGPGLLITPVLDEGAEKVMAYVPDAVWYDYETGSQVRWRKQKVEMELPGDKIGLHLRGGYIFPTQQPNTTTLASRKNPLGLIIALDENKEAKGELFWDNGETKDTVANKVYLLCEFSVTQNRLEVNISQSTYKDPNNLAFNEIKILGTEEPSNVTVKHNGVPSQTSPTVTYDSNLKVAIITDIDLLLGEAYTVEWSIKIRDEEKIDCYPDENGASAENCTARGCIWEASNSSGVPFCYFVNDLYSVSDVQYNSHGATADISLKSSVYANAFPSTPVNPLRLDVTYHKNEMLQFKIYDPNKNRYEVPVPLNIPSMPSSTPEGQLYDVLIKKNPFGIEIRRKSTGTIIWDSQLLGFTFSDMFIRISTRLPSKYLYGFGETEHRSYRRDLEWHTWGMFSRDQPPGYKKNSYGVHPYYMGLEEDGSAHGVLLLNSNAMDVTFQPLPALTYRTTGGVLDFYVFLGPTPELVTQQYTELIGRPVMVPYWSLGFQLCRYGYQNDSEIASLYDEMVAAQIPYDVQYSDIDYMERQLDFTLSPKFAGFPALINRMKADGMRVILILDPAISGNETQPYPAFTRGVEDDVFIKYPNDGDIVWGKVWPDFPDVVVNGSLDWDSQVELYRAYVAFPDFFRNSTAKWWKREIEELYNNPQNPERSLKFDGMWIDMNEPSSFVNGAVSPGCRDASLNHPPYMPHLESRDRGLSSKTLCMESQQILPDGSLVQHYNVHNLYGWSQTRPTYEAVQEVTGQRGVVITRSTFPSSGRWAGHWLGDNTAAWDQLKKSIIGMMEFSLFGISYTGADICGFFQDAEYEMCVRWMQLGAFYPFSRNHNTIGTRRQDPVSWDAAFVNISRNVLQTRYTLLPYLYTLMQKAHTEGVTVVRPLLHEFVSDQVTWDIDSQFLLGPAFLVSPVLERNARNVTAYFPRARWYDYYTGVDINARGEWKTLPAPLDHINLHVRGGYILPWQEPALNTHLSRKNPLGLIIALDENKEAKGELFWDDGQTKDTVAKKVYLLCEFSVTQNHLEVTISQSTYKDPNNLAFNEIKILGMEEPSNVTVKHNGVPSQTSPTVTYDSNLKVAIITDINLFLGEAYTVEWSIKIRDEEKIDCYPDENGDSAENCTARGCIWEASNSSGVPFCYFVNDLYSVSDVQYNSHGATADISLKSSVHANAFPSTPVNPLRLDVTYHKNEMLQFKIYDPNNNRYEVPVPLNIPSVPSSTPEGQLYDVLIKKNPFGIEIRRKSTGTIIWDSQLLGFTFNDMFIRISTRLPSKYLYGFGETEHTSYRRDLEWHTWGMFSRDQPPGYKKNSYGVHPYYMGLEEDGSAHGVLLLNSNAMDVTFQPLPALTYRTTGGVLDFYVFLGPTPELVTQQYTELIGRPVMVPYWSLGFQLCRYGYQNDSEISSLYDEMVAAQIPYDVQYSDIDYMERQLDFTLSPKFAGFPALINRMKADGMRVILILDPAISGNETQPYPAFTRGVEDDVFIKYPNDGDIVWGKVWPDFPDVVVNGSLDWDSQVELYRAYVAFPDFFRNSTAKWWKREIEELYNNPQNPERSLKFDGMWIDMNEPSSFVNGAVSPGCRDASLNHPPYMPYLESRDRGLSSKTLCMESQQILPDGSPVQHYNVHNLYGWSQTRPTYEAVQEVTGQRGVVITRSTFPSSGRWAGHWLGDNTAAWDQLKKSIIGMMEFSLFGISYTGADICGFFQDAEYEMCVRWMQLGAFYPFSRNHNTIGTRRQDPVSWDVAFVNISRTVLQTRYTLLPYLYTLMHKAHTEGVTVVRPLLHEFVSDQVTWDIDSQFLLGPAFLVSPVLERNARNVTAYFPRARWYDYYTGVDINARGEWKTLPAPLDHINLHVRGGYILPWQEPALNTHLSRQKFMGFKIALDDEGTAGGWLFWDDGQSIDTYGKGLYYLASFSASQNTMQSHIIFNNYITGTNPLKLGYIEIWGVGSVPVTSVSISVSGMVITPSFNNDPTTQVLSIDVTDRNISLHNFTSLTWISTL

Regarding `CC(C)=CCc1cc(C(=O)/C=C/c2ccc(O)c(O)c2)c(O)cc1O` [broussochalcone A], affinity in experiment [1] was put at a Ki of 5.3 µM.
The compound `CC(C)=CCc1cc(-c2oc3cc(O)c(CC=C(C)C)c(O)c3c(=O)c2O)cc(O)c1O` [CHEBI:66727] had a Ki in experiment [2] of 2.3 µM. This counts as single-digit micromolar.
